# Measured values as given in patent US20190345558A1, “METHOD FOR DETERMINING SENSITIVITY TO A CDK4/6 INHIBITOR” (UNIVERSITÉ LIBRE DE BRUXELLES, priority 2016, published 2019).
# How the values were obtained:
# HCC1806 = assay: BrdU DNA incorporation assay
# Experimental: One hour before fixation with methanol, 100 μM 5-Bromo-2′-deoxyuridine (BrdU, Sigma-Aldrich) and 4 μM 5-Fluoro-2′-deoxyuridine (FldU, Sigma-Aldrich) were added to the cells. Immuno-detection of DNA incorporated BrdU was performed. 4′,6-Diamidino-2-phenylindole, dilactate (DAPI, Thermo Fisher Scientific) solution (1 μg/ml) was used as nuclear counterstain and round coverslips were mounted in each well of the 96 well plate with ProLong Gold Antifade Mountant (Thermo Fisher Scientific). […] Culture plates were imaged with a Zeiss Axio Observer.Z1 wide-field microscope equipped with a 10/0.3×EC Plan Neofluar objective and an AxioCam HSm camera. For each well, a grid of 3×3 fields (each of them 660 μm×492 μm) was automatically defined using the Mark&Find option of the AxioVision software. […] Exposure times were chosen so as to maximize the signal while avoiding saturation. They were kept constant through all images within one experiment. A software-based autofocus was performed on the DAPI channel, using a general offset of 8-10 μm. A 10 μm offset was added for the A488 channel. Images were analyzed semi-automatically with a custom-made ImageJ macro. For each field of view, two masks were created, representing the areas positive for the DAPI or for both the DAPI and the BrdU stainings, respectively. Nuclei were then segmented within these masks using the “Analyze particles” function. The total number of nuclei and the area that they represent were recorded to compute the BrdU-positive to total nuclei ratios. The segmentation of the nuclei was verified visually and only values extracted from correctly segmented images were selected for further analysis. […] Each processed image was therefore systematically inspected to correct low counts and remove image with staining artefacts from the analysis. Images with less than 10 labeled nuclei were counted manually with the Image J cell counter plugin.
# MDAMB231 = assay: BrdU DNA incorporation assay
# Experimental: (§1) One hour before fixation with methanol, 100 μM 5-Bromo-2′-deoxyuridine (BrdU, Sigma-Aldrich) and 4 μM 5-Fluoro-2′-deoxyuridine (FldU, Sigma-Aldrich) were added to the cells. Immuno-detection of DNA incorporated BrdU was performed. 4′,6-Diamidino-2-phenylindole, dilactate (DAPI, Thermo Fisher Scientific) solution (1 μg/ml) was used as nuclear counterstain and round coverslips were mounted in each well of the 96 well plate with ProLong Gold Antifade Mountant (Thermo Fisher Scientific). […] Culture plates were imaged with a Zeiss Axio Observer.Z1 wide-field microscope equipped with a 10/0.3×EC Plan Neofluar objective and an AxioCam HSm camera. For each well, a grid of 3×3 fields (each of them 660 μm×492 μm) was automatically defined using the Mark&Find option of the AxioVision software. […] Exposure times were chosen so as to maximize the signal while avoiding saturation. They were kept constant through all images within one experiment. A software-based autofocus was performed on the DAPI channel, using a general offset of 8-10 μm. A 10 μm offset was added for the A488 channel. Images were analyzed semi-automatically with a custom-made ImageJ macro. […] The total number of nuclei and the area that they represent were recorded to compute the BrdU-positive to total nuclei ratios. […] Images with less than 10 labeled nuclei were counted manually with the Image J cell counter plugin.
# MDAMB468 = assay: BrdU DNA incorporation assay
# Experimental: as §1
# HCC1937 = assay: BrdU DNA incorporation assay
# Experimental: as §1
# BT20 = assay: BrdU DNA incorporation assay
# Experimental: as §1
# SKBR3 = assay: BrdU DNA incorporation assay
# Experimental: as §1
# BT474 = assay: BrdU DNA incorporation assay
# Experimental: as §1
# HCC1569 = assay: BrdU DNA incorporation assay
# Experimental: as §1
# BT549 = assay: BrdU DNA incorporation assay
# Experimental: as §1
# HCC38 = assay: BrdU DNA incorporation assay
# Experimental: as §1
# pRb phosphorylations = assay: pRb phosphorylation in HCC1806 cells; type: cell-based, Human; settings: not shown
# Experimental: Equal amounts of whole cell extract proteins were separated according to molecular mass and immunodetected. CDK4-containing complexes were co-immunoprecipited as described (Paternot et al., 2003, J Biol Chem, 278, 26533-40; Bockstaele et al., 2006, Mol Cell Biol, 26, 5070-85). For 2D gel electrophoresis, cells were lysed in a buffer containing 7 M urea and 2 M thiourea. Frozen tumor slides were solubilised in 30 mM Tris cold buffer pH 8.5 containing 7 M urea, 2 M thiourea and 4% CHAPS with continuous vortexing until defreezing and kept under agitation during 20 min. After centrifugation at 14000 rpm for 10 min at 4° C., proteins were quantified. An equal volume of 2-D-sample buffer (7 M urea, 2 M thiourea, 2% CHAPS, 0.4% 3-10 Pharmalytes and 0.4% DTT) was added to samples normalized at 150 μg proteins. Proteins were separated by isoelectric focusing on immobilized linear pH gradient strips (pH 5 to 8, Biorad) before being separated by SDS-PAGE and immunoblotted as described (Bockstaele et al., 2006, Mol Cell Biol, 26, 5070-85).
# MCF7 = assay: BrdU DNA incorporation assay
# Experimental: as §1
# MDAMB436 = assay: BrdU DNA incorporation assay
# Experimental: as §1
# MDAMB361 = assay: BrdU DNA incorporation assay
# Experimental: as §1
# HCC1500 = assay: BrdU DNA incorporation assay
# Experimental: as §1
# HCC1954 = assay: BrdU DNA incorporation assay
# Experimental: as §1
# ZR751 = assay: BrdU DNA incorporation assay
# Experimental: as §1
# T47D = assay: BrdU DNA incorporation assay
# Experimental: as §1
# MDAMB134VI = assay: BrdU DNA incorporation assay
# Experimental: as §1
# breast cancer cell lines = assay: BrdU incorporation assay, panel of 20 cell lines
# Experimental: as §1
# HCC202 = assay: BrdU DNA incorporation assay; settings: Homo sapiens, HCC202, 24 h
# Experimental: as §1
# HCC70 = assay: BrdU DNA incorporation assay
# Experimental: as §1
smiles,measurement,setting,value
CC[C@H](CO)Nc1nc(NCc2ccccc2)c2ncn(C(C)C)c2n1 [Roscovitine],effect of Roscovitine on the sensitivity of HCC1806 cells to PD0332991,"HCC1806; 2.5, 5, 10 μM Roscovitine with increasing concentrations of PD0332991, BrdU (FIG. 5)",dose-dependently increased the sensitivity
"CC(=O)c1c(C)c2cnc(Nc3ccc(N4CCNCC4)cn3)nc2n(C2CCCC2)c1=O [PD0332991, palbociclib]",IC50,"MDAMB231; Homo sapiens, MDA-MB-231, 24 h",0.015 µM
same,sensitivity of the cell line to PD0332991,"MDAMB231; MDAMB231, basal-like",sensitive
same,IC50,"MDAMB468; Homo sapiens, MDA-MB-468, 24 h",> 1 µM
same,sensitivity of the cell line to PD0332991,"MDAMB468; MDAMB468, basal-like",insensitive
same,sensitivity of the cell line to PD0332991,"HCC1937; HCC1937, basal-like",insensitive
same,IC50,"HCC1937; Homo sapiens, HCC1937, 24 h",> 1 µM
same,sensitivity of the cell line to PD0332991,"BT20; BT20, basal-like",sensitive
same,IC50,"BT20; Homo sapiens, BT-20, 24 h",0.003 µM
same,IC50,"SKBR3; Homo sapiens, SK-BR-3, 24 h",0.015 µM
same,sensitivity of the cell line to PD0332991,"SKBR3; SKBR3, HER2+",sensitive
same,sensitivity of the cell line to PD0332991,"BT474; BT474, HER2+",sensitive
same,IC50,"BT474; Homo sapiens, BT-474, 24 h",0.015 µM
same,sensitivity of the cell line to palbociclib,HCC1569; HCC1569,insensitive
same,IC50,"HCC1569; Homo sapiens, HCC1569, 24 h",> 1 µM
same,sensitivity of the cell line to PD0332991,"BT549; BT459 as printed, basal-like",insensitive
same,IC50,"BT549; Homo sapiens, BT-549, 24 h",> 1 µM
same,sensitivity of the cell line to PD0332991,"HCC38; HCC38, basal-like",sensitive
same,IC50,"HCC38; Homo sapiens, HCC38, 24 h",0.015 µM
same,inhibition of pRb phosphorylations in response to PD0332991,pRb phosphorylations,marked inhibition
same,IC50,"MCF7; Homo sapiens, MCF7, 24 h",0.015 µM
same,sensitivity of the cell line to PD0332991,"MCF7; MCF7, luminal",sensitive
same,IC50,"MDAMB436; Homo sapiens, MDA-MB-436, 24 h",> 1 µM
same,sensitivity of the cell line to PD0332991,"MDAMB436; MDAMB436, basal-like",insensitive
same,IC50,"MDAMB361; Homo sapiens, MDA-MB-361, 24 h",0.01 µM
same,sensitivity of the cell line to PD0332991,"MDAMB361; MDAMB361, HER2+",sensitive
same,sensitivity of the cell line to PD0332991,"HCC1500; HCC1500, basal-like",sensitive
same,IC50,"HCC1500; Homo sapiens, HCC1500, 24 h",0.01 µM
same,sensitivity of the cell line to PD0332991,"HCC1954; HCC1954, HER2+",sensitive
same,IC50,"HCC1954; Homo sapiens, HCC1954, 24 h",0.025 µM
same,IC50,"ZR751; Homo sapiens, ZR-75-1, 24 h",0.015 µM
same,sensitivity of the cell line to PD0332991,ZR751; ZR75-1,sensitive
same,IC50,"T47D; Homo sapiens, 24 h",0.015 µM
same,sensitivity of the cell line to PD0332991,T47D; luminal,sensitive
same,IC50,"MDAMB134VI; Homo sapiens, MDA-MB-134-VI, 24 h",0.003 µM
same,sensitivity of the cell line to PD0332991,"MDAMB134VI; MDAMB134IV as printed, luminal",sensitive
same,proportion of cells in S phase measured with the BrDU assay,"HCC1806; HCC1806 cells, 1 μM PD0332991 (FIG. 1C), average of 5 independent experiments",80 % of the control value
same,IC50,"HCC1806; Homo sapiens, HCC1806, 24 h",0.01 µM
same,cell lines in which the proportion of DNA replicating cells was reduced in a concentration-dependent way,breast cancer cell lines; BrdU incorporation,13 out of these 20 cell lines
same,IC50,"breast cancer cell lines; Homo sapiens, read-out: IC50s with the BrdU incorporation assay",0.005 to 0.05 µM
same,IC50,HCC202,0.025 µM
same,sensitivity of the cell line to PD0332991,"HCC70; HCC70, basal-like",insensitive
same,IC50,"HCC70; Homo sapiens, HCC70, 24 h",> 1 µM
